Where a SMILES comes first, the peptide text is derived from it. The star is where a group is joined. βNA = c1ccc2cc(N*)ccc2c1
Tests used:
Gal9 puncta = Gal9 puncta by high content microscopy in metformin-treated cells; assay type: cell-based
Experimental: (§1) The cells were plated in 96 well plates on day 1 and were treated on day 2, followed by fixation in 4% paraformaldehyde for 5 min. After fixation, cells were washed twice with 1×PBS and were then permeabilized with 0.1% saponin in 3% Bovine serum albumin (BSA) for 30 min. The cells were then incubated with primary antibodies O/N at 4° C. On day3, the cells were washed twice with 1×PBS and incubated with secondary antibodies for 1 h followed by 5 min incubation with Hoechst 33342. High content microscopy with automated image acquisition and quantification was carried out using a Cellomics HCS scanner and iDEV software (ThermoFisher Scientific). Automated epifluorescence image collection was performed for a minimum of 500 cells per well. Epifluorescence images were machine analyzed using preset scanning parameters and object mask definitions. Hoechst 33342 staining was used for autofocus and to automatically define cellular outlines based on background staining of the cytoplasm. Primary objects were cells, and regions of interest (ROI) or targets were algorithm-defined by shape/segmentation, maximum/minimum average intensity, total area and total intensity, etc., to automatically identify puncta or other profiles within valid primary objects. All data collection, processing (object, ROI, and target mask assignments) and analyses were computer driven independently of human operators.

ALIX puncta = ALIX puncta by high content microscopy in THP-1 cells; assay type: cell-based; settings: 250 μM metformin 2 h or 250 μM LLOMe 1 h (FIG. 5SF)
Experimental: as §1

ubiquitin puncta = test: Ubiquitin puncta by high content microscopy in THP-1 cells; assay type: cell-based; settings: 250 μM metformin 2 h compared with 250 μM LLOMe 1 h (FIG. 5SC)
Experimental: as §1

Gal8 puncta = Gal8 puncta by high content microscopy in THP-1 cells; assay type: cell-based; settings: 250 μM for 2 h, HCM (FIG. 5SB)
Experimental: as §1

[1] = test system: LysoTracker Red staining of acidified compartments such as lysosomes; test: LysoTracker assay in THP-1 cells; assay type: cell-based; settings: 250 μM for 2 h (FIG. 5SD)
Experimental: Prepare fresh LysoTracker Staining Solution (2 μL LysoTracker in 1 mL medium). Add 10 μL LysoTracker Staining Solution to no treatment, LLOMe treated or Metformin treated THP-1 cells in 96 wells for total 100 μL per well and incubate at 37° C. for 30 min protected from light. Rinse gently by 1×PBS and fix in 4% Paraformaldehyde for 2 min. Wash once by 1×PBS and blot with Hoechst 33342 for 2 min before detecting by high content microscopy.

LC3 puncta = LC3 puncta by high content microscopy in THP-1 cells; assay type: cell-based; settings: 250 μM metformin 2 h, compared with LLOMe (FIG. 7A)
Experimental: as §1

LC3 = LC3 response in Huh7 and HeLa cells treated with TAK1 inhibitor and LLOMe; assay type: cell-based; settings: with LLOMe (FIG. 5C)
Experimental: (§2) Western blotting and co-immunoprecipitation (co-IP) were performed as described previously (Chauhan et al., 2016). For TAK1 inhibition, the cells were treated with TAK1 inhibitor (5Z-oxozeanol) 1 h prior to LLOMe treatment. For co-IP, cells were transfected with plasmids as indicated in figures and lysed in NP-40 buffer containing protease inhibitor cocktail and PMSF. Lysates were incubated with antibodies at 4° C. for 4 h followed by incubation with protein G Dynabeads for 2 h at 4° C. Beads were washed three times with PBS and boiled with SDS containing sample buffer, samples were processed for immunoblotting to analyze the interactions between immunoprecipitated proteins.

TAK1 = test: Western blot of HeLa cells treated with TAK1 inhibitor and LLOMe; assay type: cell-based; settings: 1 mM LLOMe 30 min (FIG. 5C)
Experimental: as §2

AMPKα1 = test: Western blot of Huh7 cells treated with TAK1 inhibitor and LLOMe; assay type: cell-based; settings: TAK1 inhibitor 1 h prior to 1 mM LLOMe 30 min
Experimental: as §2

AMPK = test: Western blot of AMPK activation upon lysosomal damage by damaging agents; assay type: cell-based; settings: HEK293T cells, time and dose dependent, Western blot (FIGS. 4SE-F)
Experimental: as §2

autophagy = settings: cited studies; cited from earlier work
[2] = test system: Gal9 complexes with AMPK and TAK1; test: APEX2-Gal9 proximity biotinylation and co-IP after LLOMe; assay type: cell-based
Experimental: as §2

AMPKα1 on lysosomes = test: LysoIP lysosome purification and immunoblot; assay type: cell-based; settings: HEK293T cells, 1 mM LLOMe 30 min, LysoIP (FIG. 6B)
Experimental: Stable LysoIP cells were produced, by utilizing lentiviruses constructs from David M. Sabatini Lab (White Head Institute). HEK293T cells were transfected with pLJC5-TMEM192-3xHA or pLJC5-TMEM192-2XFLAG constructs in combination with pCMV-VSV-G and psPAX2 packaging plasmids, 60 h after transfection, the supernatant containing lentiviruses was collected and centrifuged to remove cells and then frozen at −80° C. To establish LysoIP stably expressing cell lines, HEK293T, Huh7 or Huh7 Gal9^KO cells were plated in […] in DMEM with 10% FBS and infected with 500 μL of virus-containing media overnight followed by addition of 1 μg/mL puromycin for selection. Cells were plated in 15 cm^2 culture plates and were used at 90% confluency for each LysoIP. Cells with or without 1 mM LLOMe treatment were quickly rinsed twice with PBS and then scraped in 1 mL of KPBS (136 mM KCl, 10 mM KH2PO4, pH7.25 was adjusted with KOH) and centrifuged at 3000 rpm for 2 min at 4° C. Pelleted cells were resuspended in 950 μL KPBS and reserved 25 μL for further processing of the whole-cell lysate. The remaining cells were gently homogenized with 20 strokes of a 2 mL homogenizer. The homogenate was then centrifuged at 3000 rpm for 2 min at 4° C. and the supernatant was incubated with 100 μL of KPBS prewashed anti-HA magnetic beads (ThermoFisher) on a gentle rotator shaker for 3 min. […]

Compound: CN(C)C(=N)N=C(N)N [metformin]
- response of Huh7 or 293T cells to metformin (Gal9 puncta; Huh7 or 293T cells): did not respond
- lysosomal damage response, Gal9 puncta formation (Gal9 puncta; THP-1 cells, 250 μM for 2 h, HCM (FIG. 5SB)): lysosomal damage response by detecting Gal9 puncta formation
- ALIX puncta response (ALIX puncta): a milder but significant response
- ubiquitination response (ubiquitin puncta) (ubiquitin puncta): a ubiquitination response albeit of a lesser magnitude than when applying an overt lysosomal damaging agent LLOMe
- puncta stained for Gal8 (Gal8 puncta): an increase in puncta stained for Gal8
- LysoTracker Red staining [1]: a decrease in staining
- LC3 response (average area of LC3 puncta per cell) (LC3 puncta): a similar LC3 response

Compound: COc1cc(O)c2c(c1)/C=C/C[C@H](O)[C@H](O)C(=O)/C=C\C[C@H](C)OC2=O [5ZO, (5-Z)-7-oxozeaenol]
- LC3 response (LC3): reduced the LC3 response
- TAK1 activation with LLOMe (TAK1): suppressed TAK1 activation
- phosphorylation of AMPK substrate ACC (pS79) (TAK1): inhibition of phosphorylation
- phosphorylation of AMPKα1 (pT172) (TAK1): inhibition of phosphorylation
- AMPKα1 activation upon lysosomal damage (AMPKα1): prevented AMPKα1 activation

Compound: NCC(=O)N[C@@H](Cc1ccccc1)C(=O)Nc1ccc2ccccc2c1 [GPN, Gly-Phe β-naphthylamide] (H-Gly-Phe-βNA)
- AMPK activation upon lysosomal damage (AMPK): activated

Compound: Br.COC(=O)[C@H](CC(C)C)NC(=O)[C@@H](N)CC(C)C [LLOMe, Leu-Leu methyl ester hydrobromide]
- autophagy induction (autophagy): has been shown to induce autophagy
- ALIX puncta response (ALIX puncta): a robust response
- association between AMPK and Gal9 ([2]; APEX2-Gal9 proximity biotinylation, 30 min of exposure (FIG. 4SA)): increased association
- mCherry-Gal9 association with GFP-TAK1 ([2]; HeLa Flp-In Gal9 Tet-ON cells, 30 min of treatment (FIG. 4SB)): A similar increase
- AMPK activation upon lysosomal damage (AMPK): activated
- AMPKα1 on purified lysosomes (AMPKα1 on lysosomes): enrichment of AMPKα1 on lysosomes

Source: patent US11819498B2, “Methods and compositions for treating autophagy related disease states and conditions utilizing AMPK activation” (UNM RAINFOREST INNOVATIONS, priority 2019, dated 2023)
